Source: patent US8871753B2, “Macrocyclic compounds and their use as kinase inhibitors” (Incyte Corporation, priority 2008, dated 2014)
Counter-ions that a name gives are not always drawn. Like-named read-outs stand apart in the source and are kept apart here.

Columns and labels:
Type in all cases: biochemical
[1] = molecular target: T1, Recombinant Human Anaplastic Lymphoma Kinase (Homo sapiens, UniProt Q9UM73); test: ALK HTRF kinase assay
T1 construct: purchased Invitrogen, Carlsbad, Calif
How it was run: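 TR-FRET read-out (Eu anti-pTyr antibody + streptavidin-APC) of biotin-peptide phosphorylation by recombinant human enzyme; IC50 by sigmoidal fit with top/bottom baselines and Hill slope.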

[2] = molecular target: T2, human JAK3 (a.a. 781-1124) (Homo sapiens, UniProt P52333); test: In vitro JAK kinase assay (HTRF, phosphorylation of a biotinylated peptide), JAK3
T2 construct: JAK3 (a.a. 781-1124); His tag (N); made in house; host or cells: insect cells (baculovirus)
T2 sequence (P52333 781-1124): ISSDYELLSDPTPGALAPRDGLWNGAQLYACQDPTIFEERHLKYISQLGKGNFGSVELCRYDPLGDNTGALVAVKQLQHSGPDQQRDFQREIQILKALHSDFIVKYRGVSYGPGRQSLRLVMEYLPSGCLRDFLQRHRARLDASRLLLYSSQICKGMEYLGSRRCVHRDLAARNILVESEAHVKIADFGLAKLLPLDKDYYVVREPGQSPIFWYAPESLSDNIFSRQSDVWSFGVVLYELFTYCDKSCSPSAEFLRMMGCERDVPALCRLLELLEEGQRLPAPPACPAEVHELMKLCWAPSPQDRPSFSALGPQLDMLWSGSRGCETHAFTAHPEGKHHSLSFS
How it was run: (§1)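 Kinase reactions ran at room temperature for 1 h with ATP matched per isoform (JAK1 90 μM, JAK2 30 μM, JAK3 3 μM). After an EDTA stop, the phosphorylated biotin-peptide was read by HTRF using Eu-Py20 and SA-APC after 40 min binding.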

[3] = molecular target: T3, human JAK2 (a.a. 828-1132) (Homo sapiens, UniProt O60674); test: In vitro JAK kinase assay (HTRF, phosphorylation of a biotinylated peptide), JAK2
T3 construct: JAK2 (a.a. 828-1132); His tag (N); made in house; host or cells: insect cells (baculovirus)
T3 sequence (O60674 828-1132): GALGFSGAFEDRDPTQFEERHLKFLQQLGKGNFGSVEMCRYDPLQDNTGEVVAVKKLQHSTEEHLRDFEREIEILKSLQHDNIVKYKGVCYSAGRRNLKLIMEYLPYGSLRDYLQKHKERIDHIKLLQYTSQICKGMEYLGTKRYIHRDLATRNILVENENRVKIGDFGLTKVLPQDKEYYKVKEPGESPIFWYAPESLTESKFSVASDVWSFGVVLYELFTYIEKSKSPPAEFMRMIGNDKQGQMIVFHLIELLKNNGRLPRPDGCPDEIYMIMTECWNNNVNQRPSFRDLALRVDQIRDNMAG
How it was run: as §1

[4] = molecular target: T4, human JAK1 (a.a. 837-1142) (Homo sapiens, UniProt P23458); test: In vitro JAK kinase assay (HTRF, phosphorylation of a biotinylated peptide), JAK1; settings: read-out: JAK1 IC50
T4 construct: human JAK1 (a.a. 837-1142); His tag (N); made in house; host or cells: insect cells (baculovirus)
T4 sequence (P23458 849-1154): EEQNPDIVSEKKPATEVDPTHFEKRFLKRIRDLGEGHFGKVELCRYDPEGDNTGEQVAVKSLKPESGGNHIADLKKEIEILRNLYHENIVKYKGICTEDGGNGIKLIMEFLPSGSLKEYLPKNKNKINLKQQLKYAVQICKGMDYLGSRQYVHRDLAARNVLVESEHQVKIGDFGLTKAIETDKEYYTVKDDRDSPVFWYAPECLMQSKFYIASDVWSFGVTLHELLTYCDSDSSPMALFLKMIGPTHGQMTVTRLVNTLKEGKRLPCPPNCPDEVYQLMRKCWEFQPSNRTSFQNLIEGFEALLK
How it was run: as §1

[5] = molecular target: TYK2 (Homo sapiens, UniProt P29597); test: TYK2 kinase inhibition (Table A1)
Chain of TYK2 (P29597 whole entry): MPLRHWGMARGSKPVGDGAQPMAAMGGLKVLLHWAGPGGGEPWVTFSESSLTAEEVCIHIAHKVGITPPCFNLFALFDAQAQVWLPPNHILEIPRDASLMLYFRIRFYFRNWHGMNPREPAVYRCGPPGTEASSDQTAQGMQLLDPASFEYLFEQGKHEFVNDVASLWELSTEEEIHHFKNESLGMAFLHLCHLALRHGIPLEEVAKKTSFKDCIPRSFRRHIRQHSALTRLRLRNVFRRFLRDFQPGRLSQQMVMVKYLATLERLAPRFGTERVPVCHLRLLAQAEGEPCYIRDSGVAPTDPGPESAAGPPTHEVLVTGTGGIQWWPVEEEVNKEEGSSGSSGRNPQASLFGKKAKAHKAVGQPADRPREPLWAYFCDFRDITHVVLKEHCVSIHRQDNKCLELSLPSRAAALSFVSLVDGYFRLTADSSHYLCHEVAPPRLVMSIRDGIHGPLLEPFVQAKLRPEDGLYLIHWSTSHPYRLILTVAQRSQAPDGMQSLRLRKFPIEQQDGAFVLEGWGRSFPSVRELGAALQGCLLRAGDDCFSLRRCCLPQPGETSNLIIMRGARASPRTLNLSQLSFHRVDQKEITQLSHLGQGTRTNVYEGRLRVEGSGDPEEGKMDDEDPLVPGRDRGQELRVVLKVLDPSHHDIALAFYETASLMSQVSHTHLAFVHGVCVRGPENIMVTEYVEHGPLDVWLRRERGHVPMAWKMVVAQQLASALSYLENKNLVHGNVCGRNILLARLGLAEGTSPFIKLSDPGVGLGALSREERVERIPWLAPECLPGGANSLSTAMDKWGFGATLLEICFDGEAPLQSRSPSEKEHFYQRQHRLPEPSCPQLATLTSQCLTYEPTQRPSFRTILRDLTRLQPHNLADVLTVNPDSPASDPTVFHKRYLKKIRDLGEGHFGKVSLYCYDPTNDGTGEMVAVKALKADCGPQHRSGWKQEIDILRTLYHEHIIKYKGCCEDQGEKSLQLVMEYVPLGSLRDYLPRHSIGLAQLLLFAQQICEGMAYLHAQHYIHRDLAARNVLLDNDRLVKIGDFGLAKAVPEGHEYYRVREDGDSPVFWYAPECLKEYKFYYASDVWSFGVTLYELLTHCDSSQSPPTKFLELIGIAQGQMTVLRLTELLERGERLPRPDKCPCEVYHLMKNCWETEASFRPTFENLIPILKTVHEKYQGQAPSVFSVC

[6] = compound at a concentration of 500 nM or 1 mM (not specified), cells shown as percentage
[7] = compound at 500 nM or 1 mM, 90 μM ATP
[8] = method AA1 (3 μM ATP) or AA2 (1000 μM ATP), not stated per value
[9] = method AA1 (30 μM ATP) or AA2 (1000 μM ATP), not stated per value
[10] = method AA1 (90 μM ATP) or AA2 (1000 μM ATP), not stated per value

T1 sequence (Q9UM73 19-1620): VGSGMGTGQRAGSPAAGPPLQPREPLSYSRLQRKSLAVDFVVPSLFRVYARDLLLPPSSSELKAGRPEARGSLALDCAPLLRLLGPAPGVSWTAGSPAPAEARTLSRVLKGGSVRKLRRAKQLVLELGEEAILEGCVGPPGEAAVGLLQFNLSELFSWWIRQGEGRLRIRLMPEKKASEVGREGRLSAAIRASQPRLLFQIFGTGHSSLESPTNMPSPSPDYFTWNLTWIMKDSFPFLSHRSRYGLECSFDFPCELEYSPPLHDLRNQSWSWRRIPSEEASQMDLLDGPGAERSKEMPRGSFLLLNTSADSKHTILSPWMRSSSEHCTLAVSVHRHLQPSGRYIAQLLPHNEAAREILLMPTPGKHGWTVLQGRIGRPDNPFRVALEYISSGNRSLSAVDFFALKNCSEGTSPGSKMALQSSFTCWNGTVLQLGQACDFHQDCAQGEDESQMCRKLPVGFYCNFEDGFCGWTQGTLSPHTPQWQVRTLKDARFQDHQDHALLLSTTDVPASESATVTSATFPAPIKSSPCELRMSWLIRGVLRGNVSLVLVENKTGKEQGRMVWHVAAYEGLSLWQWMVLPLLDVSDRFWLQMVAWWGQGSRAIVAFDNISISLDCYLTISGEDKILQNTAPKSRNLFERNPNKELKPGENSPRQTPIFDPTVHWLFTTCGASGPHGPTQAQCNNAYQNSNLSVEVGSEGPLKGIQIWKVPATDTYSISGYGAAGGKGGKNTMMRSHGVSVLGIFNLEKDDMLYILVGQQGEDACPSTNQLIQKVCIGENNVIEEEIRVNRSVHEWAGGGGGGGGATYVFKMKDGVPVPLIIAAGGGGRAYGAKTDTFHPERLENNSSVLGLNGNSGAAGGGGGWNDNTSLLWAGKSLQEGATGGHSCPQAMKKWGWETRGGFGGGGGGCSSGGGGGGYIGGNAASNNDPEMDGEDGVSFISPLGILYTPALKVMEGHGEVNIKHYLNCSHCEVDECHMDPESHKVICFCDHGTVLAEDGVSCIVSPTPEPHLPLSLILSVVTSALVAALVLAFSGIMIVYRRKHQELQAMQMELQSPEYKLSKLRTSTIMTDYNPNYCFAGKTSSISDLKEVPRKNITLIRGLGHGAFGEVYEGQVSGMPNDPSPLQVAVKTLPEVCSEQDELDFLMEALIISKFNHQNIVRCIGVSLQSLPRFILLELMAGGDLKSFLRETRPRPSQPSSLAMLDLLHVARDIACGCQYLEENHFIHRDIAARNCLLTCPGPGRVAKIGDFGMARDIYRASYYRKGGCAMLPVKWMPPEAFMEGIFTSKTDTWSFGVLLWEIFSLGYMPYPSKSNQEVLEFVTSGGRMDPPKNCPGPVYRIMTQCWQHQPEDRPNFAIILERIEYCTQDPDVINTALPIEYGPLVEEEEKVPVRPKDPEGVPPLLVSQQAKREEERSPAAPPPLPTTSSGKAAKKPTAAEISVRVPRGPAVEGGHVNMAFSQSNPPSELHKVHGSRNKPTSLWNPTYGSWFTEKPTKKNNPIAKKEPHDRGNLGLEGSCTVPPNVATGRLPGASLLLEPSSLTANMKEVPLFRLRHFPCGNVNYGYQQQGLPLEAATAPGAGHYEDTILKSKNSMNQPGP

O=C(NCc1ccccc1)N1CCN(c2ccc(-c3cc4cc(c3)Nc3ncc(Cl)c(n3)Nc3cccc(c3)OCC4)cn2)CC1 [Example D48, bis(trifluoroacetate)]
IC50 ([1]; Table D1, 90 μM ATP): > 1 µM
IC50 ([2]; Table D1): 0.027 µM
IC50 ([3]; Table D1): 0.0021 µM
IC50 ([4]; Table D1): 0.0049 µM
IC50 ([5]; Table D1): 0.0083 µM

Cc1noc(C)c1S(=O)(=O)Nc1ccc2cc1CCc1cccc(c1)Nc1ncc(Cl)c(n1)N2 [Example B152, N-[6-Chloro-2,4,8,22-tetraazatetracyclo[14.3.1.1(3,7).1(9,13)]docosa-1(20),3(22),4,6,9(21),10,12,16,18-nonaen-12-yl]-3,5-dimethylisoxazole-4-sulfonamide trifluoroacetate]
IC50 ([1]; Table B1, cells without percent sign): 0.43 µM
IC50 ([2]; Table B1): 0.011 µM
IC50 ([3]; Table B1): 0.00014 µM
IC50 ([4]; Table B1): 0.00035 µM
IC50 ([5]; Table B1): 0.0005 µM

CC(=O)N1Cc2cccc(c2)Nc2ncc(Cl)c(n2)Nc2cccc(c2)C1 [Example D74, 15-Acetyl-6-chloro-2,4,8,15,23-pentaazatetracyclo[15.3.1.1(3,7).1(9,13)]tricosa-1(21),3(23),4,6,9(22),10,12,17,19-nonaene trifluoroacetate]
IC50 ([1]; Table D1, 90 μM ATP): > 1 µM
IC50 ([2]; Table D1): 0.225 µM
IC50 ([3]; Table D1): 0.083 µM
IC50 ([4]; Table D1): 0.16 µM
IC50 ([5]; Table D1): 0.343 µM

Cn1ccc2c(NC(=O)Nc3ccc4cc3CCc3cccc(c3)Nc3ncc(Cl)c(n3)N4)cccc21 [Example B125, N-[6-Chloro-2,4,8,22-tetraazatetracyclo[14.3.1.1(3,7).1(9,13)]docosa-1(20), 3(22),4,6,9(21),10,12,16,18-nonaen-12-yl]-N′-(1-methyl-1H-indol-4-yl)urea trifluoroacetate]
ALK % of inhibition at a concentration of 500 nM or 1 mM [1, 6]: 34%
IC50 ([2]; Table B1): 0.076 µM
IC50 ([3]; Table B1): 0.01 µM
IC50 ([4]; Table B1): 0.0028 µM
IC50 ([5]; Table B1): 0.03 µM

O=C(CC1CCN(c2cccc(Cl)n2)CC1)Nc1ccc2cc1CCc1cncc(c1)Nc1ncc(Cl)c(n1)N2 [Example A180, N-[6-Chloro-2,4,8,18,22-pentaazatetracyclo[14.3.1.1(3,7).1(9,13)]docosa-1(20),3(22),4,6,9(21),10,12,16,18-nonaen-12-yl]-2-[1-(6-chloropyridin-2-yl)piperidin-4-yl]acetamide tris(trifluoroacetate)]
ALK % of inhibition at a concentration of 500 nM or 1 mM [1, 7]: 13%
IC50 [2, 8]: > 0.2 µM
IC50 [3, 9]: > 0.2 µM
IC50 [4, 10]: 0.013 µM
IC50 [5]: > 0.2 µM

CC(C)(C)c1ccc(C(=O)Nc2ccc3cc2CCc2cccc(c2)Nc2ncc(Cl)c(n2)N3)cc1 [Example B73, 4-tert-Butyl-N-[6-chloro-2,4,8,22-tetraazatetracyclo[14.3.1.1(3,7).1(9,13)]docosa-1(20),3(22),4,6,9(21),10,12,16,18-nonaen-12-yl]benzamide trifluoroacetate]
ALK % of inhibition at a concentration of 500 nM or 1 mM [1, 6]: 21%
IC50 ([2]; Table B1): 0.178 µM
IC50 ([3]; Table B1): 0.103 µM
IC50 ([4]; Table B1): 0.08 µM
IC50 ([5]; Table B1): 0.154 µM

Clc1cnc2nc1Nc1cccc(c1)CCNc1cccc(c1)N2 [Example D78, 6-Chloro-2,4,8,16,23-pentaazatetracyclo[15.3.1.1(3,7).1(9,13)]tricosa-1(21), 3(23),4,6,9(22),10,12,17,19-nonaene bis(trifluoroacetate)]
IC50 ([1]; Table D1, 90 μM ATP): 0.791 µM
IC50 ([2]; Table D1): 0.03 µM
IC50 ([3]; Table D1): 0.01 µM
IC50 ([4]; Table D1): 0.03 µM
IC50 ([5]; Table D1): 0.019 µM

N#Cc1ccc(N2CCC(CC(=O)Nc3ccc4cc3CCc3cncc(c3)Nc3ncc(Cl)c(n3)N4)CC2)nc1 [Example A179, N-[6-Chloro-2,4,8,18,22-pentaazatetracyclo[14.3.1.1(3,7).1(9,13)]docosa-1(20),3(22),4,6,9(21),10,12,16,18-nonaen-12-yl]-2-[1-(5-cyanopyridin-2-yl)piperidin-4-yl]acetamide tris(trifluoroacetate)]
ALK % of inhibition at a concentration of 500 nM or 1 mM [1, 7]: 43%
IC50 [2, 8]: > 0.2 µM
IC50 [3, 9]: 0.083 µM
IC50 [4, 10]: 0.018 µM
IC50 [5]: > 0.2 µM

CCNC(=O)N1CCC(CC(=O)Nc2ccc3cc2CCc2cccc(c2)Nc2ncc(Cl)c(n2)N3)CC1 [Example A57, 4-(2-{[6-Chloro-2,4,8,22-tetraazatetracyclo[14.3.1.1(3,7).1(9,13)]docosa-1(20),3(22),4,6,9(21),10,12,16,18-nonaen-12-yl]amino}-2-oxoethyl)-N-ethylpiperidine-1-carboxamide trifluoroacetate]
ALK % of inhibition at a concentration of 500 nM or 1 mM [1, 7]: 24%
IC50 [2, 8]: 0.06 µM
IC50 [3, 9]: 0.0073 µM
IC50 [4, 10]: 0.0055 µM
IC50 [5]: 0.0088 µM
